Structures can show the parent of a compound that is named as a salt.
Columns and labels:
mouse TAAR1 = target: T1, mouse TAAR1 (Mus musculus, UniProt Q923Y8); experiment: Radioligand binding with [3H]-rac-2-(1,2,3,4-tetrahydro-1-naphthyl)-2-imidazoline on membranes of HEK293 cells stably expressing TAAR1; conditions: for Ki: mouse TAAR1, competition with [3H]-rac-2-(1,2,3,4-tetrahydro-1-naphthyl)-2-imidazoline at 60 nM, 4° C., 30 min
T1 construct: expressed in transfected cells; host or cells: HEK293 cells (ATCC # CRL-1573), stably transfected with pIRESneo2 expression plasmid; membrane preparation
Protocol: For the construction of expression plasmids the coding sequences of human, rat and mouse TAAR 1 were amplified from genomic DNA essentially as described by Lindemann et al.. The Expand High Fidelity PCR System (Roche Diagnostics) was used with 1.5 mM Mg^2+ and purified PCR products were cloned into pCR2.1-TOPO cloning vector (Invitrogen) following the instructions of the manufacturer. PCR products were subcloned into the pIRESneo2 vector (BD Clontech, Palo Alto, Calif.), and expression vectors were sequence verified before introduction in cell lines.
HEK293 cells (ATCC # CRL-1573) were cultured essentially as described Lindemann et al. (2005). For the generation of stably transfected cell lines HEK293 cells were transfected with the pIRESneo2 expression plasmids containing the TAAR coding sequences (described above) with Lipofectamine 2000 (Invitrogen) according to the instructions of the manufacturer, and 24 hrs post transfection the culture medium was supplemented with 1 mg/ml G418 (Sigma, Buchs, Switzerland). After a culture period of about 10 d clones were isolated, expanded and tested for responsiveness to trace amines (all compounds purchased from Sigma) with the cAMP Biotrak Enzyme immunoassay (EIA) System (Amersham) following the non-acetylation EIA procedure provided by the manufacturer.
Cells at confluence were rinsed with ice-cold phosphate buffered saline without Ca^2+ and Mg^2+ containing 10 mM EDTA and pelleted by centrifugation at 1000 rpm for 5 min at 4° C. The pellet was then washed twice with ice-cold phosphate buffered saline and cell pellet was frozen immediately by immersion in liquid nitrogen and stored until use at −80° C. Cell pellet was then suspended in 20 ml HEPES-NaOH (20 mM), pH 7.4 containing 10 mM EDTA, and homogenized with a Polytron (PT 3000, Kinematica) at 10,000 rpm for 10 s. The homogenate was centrifuged at 48,000×g for 30 min at 4° C. and the pellet resuspended in 20 ml HEPES-NaOH (20 mM), pH 7.4 containing 0.1 mM EDTA (buffer A), and homogenized with a Polytron at 10,000 rpm for 10 s. The homogenate was then centrifuged at 48,000×g for 30 min at 4° C. and the pellet resuspended in 20 ml buffer A, and homogenized with a Polytron at 10,000 rpm for 10 s. Protein concentration was determined by the method of Pierce (Rockford, Ill.). The homogenate was then centrifuged at 48,000×g for 10 min at 4° C., resuspended in HEPES-NaOH (20 mM), pH 7.0 including MgCl2 (10 mM) and […] homogenized with a Polytron at 10,000 rpm for 10 s.
Binding assay was performed at 4° C. in a final volume of 1 ml, and with an incubation time of 30 min. The radioligand [^3H]-rac-2-(1,2,3,4-tetrahydro-1-naphthyl)-2-imidazoline was used at a concentration equal to the calculated Kd value of 60 nM to give a bound at around 0.1% of the total added radioligand concentration, and a specific binding which represented approximately 70-80% of the total binding. Non-specific binding was defined as the amount of [^3H]-rac-2-(1,2,3,4-tetrahydro-1-naphthyl)-2-imidazoline bound in the presence of the appropriate unlabelled ligand (10 μM). Competing ligands were tested in a wide range of concentrations (10 pM-30 μM). […] Each experiment was performed in duplicate. All incubations were terminated by rapid filtration through UniFilter-96 plates (Packard Instrument Company) and glass filter GF/C, pre-soaked for at least 2 h in polyethylenimine 0.3%, and using a Filtermate 96 Cell Harvester (Packard Instrument Company). The tubes and filters were then washed 3 times with 1 ml aliquots of cold buffer B. Filters were not dried and soaked in Ultima gold (45 μl/well, Packard Instrument Company) and bound radioactivity was counted by a TopCount Microplate Scintillation Counter (Packard Instrument Company).

T1 sequence (Q923Y8 whole entry): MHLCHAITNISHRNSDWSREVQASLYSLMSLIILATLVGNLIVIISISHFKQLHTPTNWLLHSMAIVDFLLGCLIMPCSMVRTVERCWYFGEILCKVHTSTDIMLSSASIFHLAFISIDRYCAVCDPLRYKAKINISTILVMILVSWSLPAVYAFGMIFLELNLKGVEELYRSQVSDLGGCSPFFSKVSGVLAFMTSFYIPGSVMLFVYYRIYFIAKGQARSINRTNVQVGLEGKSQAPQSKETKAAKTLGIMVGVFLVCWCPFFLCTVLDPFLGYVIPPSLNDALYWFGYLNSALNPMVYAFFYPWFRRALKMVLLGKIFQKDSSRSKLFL

Row | SMILES | Ki (mouse TAAR1) | other results
1 | Brc1ccc2c(c1)C(C1=NCCN1)CCC2 (racemic) |  | melting point: 156 to 158 °C
2 | Brc1cccc2c1CCCC2C1=NCCN1 (racemic) [Example 1, rac-2-(5-Bromo-1,2,3,4-tetrahydro-naphthalen-1-yl)-4,5-dihydro-1H-imidazole] | 0.009 µM | 
3 | Cc1cc(C)c2c(c1)C(C1=NCCN1)CCC2 (racemic) [Example 2, rac-2-(5,7-Dimethyl-1,2,3,4-tetrahydro-naphthalen-1-yl)-4,5-dihydro-1H-imidazole] | 0.011 µM | 
4 | Fc1cc(Cl)cc2c1CCCC2C1=NCCN1 (racemic) [Example 3, rac-2-(7-Chloro-5-fluoro-1,2,3,4-tetrahydro-naphthalen-1-yl)-4,5-dihydro-1H-imidazole] | 0.054 µM | 
5 | Cc1cc(C)c2c(c1)C(c1ncc[nH]1)CCC2 (racemic) [Example 10, rac-2-(5,7-Dimethyl-1,2,3,4-tetrahydro-naphthalen-1-yl)-1H-imidazole] | 0.013 µM | melting point: 161 to 163 °C
6 | c1ccc2c(c1)OCCC2C1=NCCN1 (racemic) [Example 11, rac-2-Chroman-4-yl-4,5-dihydro-1H-imidazole] | 0.017 µM | 
7 | c1ccc2c(c1)OCCC2c1ncc[nH]1 (racemic) [Example 12, rac-2-Chroman-4-yl-1H-imidazole] | 0.054 µM | 
8 | Clc1ccc2c(c1)CCCC2C1=NCCN1 (racemic) [Example 18, rac-2-(6-chloro-1,2,3,4-tetrahydro-naphthalen-1-yl)-4,5-dihydro-1H-imidazole] | 0.058 µM | 
9 | Clc1cccc2c1CCCC2C1=NCCN1 (racemic) [Example 19, rac-2-(5-chloro-1,2,3,4-tetrahydro-naphthalen-1-yl)-4,5-dihydro-1H-imidazole] | 0.013 µM | 
10 | COc1ccc2c(c1)C(C1=NCCN1)CCC2 (racemic) [Example 20, rac-2-(7-Methoxy-1,2,3,4-tetrahydro-naphthalen-1-yl)-4,5-dihydro-1H-imidazole] | 0.051 µM | 
11 | COc1ccc2c(c1)CCCC2C1=NCCN1 (racemic) [Example 21, rac-2-(6-methoxy-1,2,3,4-tetrahydro-naphthalen-1-yl)-4,5-dihydro-1H-imidazole] | 0.009 µM | 
12 | COc1cccc2c1CCCC2C1=NCCN1 (racemic) [Example 22, rac-2-(5-methoxy-1,2,3,4-tetrahydro-naphthalen-1-yl)-4,5-dihydro-1H-imidazole] | 0.025 µM | 
13 | Clc1cc(Cl)c2c(c1)C(c1ncc[nH]1)CCO2 (racemic) [Example 36, rac-2-(6,8-Dichloro-chroman-4-yl)-1H-imidazole] | 0.053 µM | 
14 | c1ccc2c(c1)NCCC2c1ncc[nH]1 (racemic) [Example 41, rac-4-(1H-Imidazol-2-yl)-1,2,3,4-tetrahydro-quinoline] | 0.061 µM | 
15 | c1ccc2c(c1)CCCC2c1c[nH]cn1 (racemic) [Example 56, rac-4-(1,2,3,4-Tetrahydro-naphthalen-1-yl)-1H-imidazole] | 0.006 µM | 
16 | Cc1ccc2c(c1)OCCC2c1cnc[nH]1 (racemic) [Example 60, rac-5-(7-Methyl-chroman-4-yl)-1H-imidazole or tautomer] | 0.008 µM | 
17 | Fc1ccc2c(c1)C(c1cnc[nH]1)CCO2 (racemic) [Example 62, rac-5-(6-Fluoro-chroman-4-yl)-1H-imidazole or tautomer] | 0.004 µM | 
18 | Fc1ccc2c(c1)OCCC2c1cnc[nH]1 (racemic) [Example 65, rac-5-(7-Fluoro-chroman-4-yl)-1H-imidazole or tautomer] | 0.004 µM | 
19 | Cc1cccc2c1C(c1cnc[nH]1)CCO2 (racemic) [Example 66, rac-5-(5-Methyl-chroman-4-yl)-1H-imidazole or tautomer] | 0.037 µM | 
20 | Fc1cccc2c1C(c1cnc[nH]1)CCO2 (racemic) [Example 67, rac-5-(5-Fluoro-chroman-4-yl)-1H-imidazole or tautomer] | 0.032 µM | 
21 | c1ccc2c(c1)OCCC2c1cnc[nH]1 (racemic) [Example 69, rac-5-Chroman-4-yl-1H-imidazole hydrochloride or tautomer] | 0.025 µM | 
22 | c1ccc2c(c1)CCCC2C1=NCCN1 (racemic) [[^3H]-rac-2-(1,2,3,4-tetrahydro-1-naphthyl)-2-imidazoline, reference compound] |  | Kd (mouse TAAR1; radioligand used at a concentration equal to its calculated Kd, species of TAAR1 not given): 60 nM
23 | C1=C(c2cnc[nH]2)c2ccccc2CC1 [Example 55] | 0.011 µM | 
24 | Clc1cccc2c1OCC=C2c1cnc[nH]1 [Example 63, 5-(8-Chloro-2H-chromen-4-yl)-1H-imidazole or tautomer] | 0.02 µM | 
25 | Clc1ccc2c(c1)C(c1cnc[nH]1)=CCO2 [Example 64, 5-(6-Chloro-2H-chromen-4-yl)-1H-imidazole or tautomer] | 0.016 µM | 

— US20120071506A1, “METHODS FOR TREATING CNS DISORDERS WITH BICYCLO-SUBSTITUTED 2-IMIDAZOLINE AND 2-IMIDAZOLES” (priority 2006, published 2012)
